IC50 data for 24 molecules are collected here from patent publication US12459921B2, “Isoindoline compound, preparation method, pharmaceutical composition and use thereof” (SHANGHAI INSTITUTE OF MATERIA MEDICA, CHINESE ACADEMY OF …, priority 2018, dated 2025).

pIC50: −log10 of the molar value.

This assay has as its system MM.1S cells. Description: Inhibitory effect on the proliferation of MM.1S, MTS cell viability test. The note with it: Homo sapiens, MM1.S, 168 h, multiple myeloma MM.1S cells, 7 days incubation, read-out: Tumor cell inhibitory activity. The assay is classed as cell-based. The procedure, abridged: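 Viability measured by MTS (OD490 minus OD690 background, 3-4 h) after a 7-day exposure of 20,000 MM.1S cells/well to 5-fold serially diluted compound, 0.2% DMSO final. Inhibition calculated relative to DMSO wells; IC50 curve-fitted, averaged over three repeats.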
For orientation: Tetrazolium assays rely on reduction of a dye to a coloured formazan, in cell work by metabolically active cells.
On to `O=C1CCC(N2Cc3c(CCCCCN4CCC5(CC4)OCc4c(Cl)cccc45)cccc3C2=O)C(=O)N1` (stereo not drawn) [Example 280, 3-(4-(5-(4-chloro-3H-spiro[isobenzofuran-1,4′-piperidin]-1-yl)pentyl)-1-oxoisoindoline-2-yl)piperidine-2,6-dione], for which the pIC50 was 6.00 to 7.00.
Consider `N#CC1(c2ccc(OC(F)(F)F)cc2)CCN(CCCCc2cccc3c2CN(C2CCC(=O)NC2=O)C3=O)CC1` (stereo not drawn) [Example 99, 1-(4-(2-(2,6-dioxopiperidine-3-)-1-oxoisoindoline-4-)butyl)-4-(4-trifluoromethoxyphenyl)piperidine-4-carbonitrile], for which the pIC50 was greater than 7.00.
As to `O=C1CCC(N2Cc3c(CCCCCN4CCC5(CC4)C(=O)NCN5c4ccccc4)cccc3C2=O)C(=O)N1` (stereo not drawn) [Example 147, 3-(1-oxo-4-(5-(4-oxo-1-phenyl-1,3,8-triazaspiro[4.5]decane-8-)pentyl)isoindoline-2-)piperidine-2,6-dione], the pIC50 is 6.00 to 7.00.
Consider `N#CC1(c2c(Cl)cccc2Cl)CCN(CCCCc2cccc3c2CN(C2CCC(=O)NC2=O)C3=O)CC1` (stereo not drawn) [Example 266, 4-(2,6-dichlorophenyl)-1-(4-(2-(2,6-dioxopiperidin-3-yl)-1-oxoisoindoline-4-yl)butyl)piperidine-4-carbonitrile], for which the pIC50 was 6.00 to 7.00.
As for `N#CC1(c2cccc(F)c2)CCN(CCCOc2cccc3c2CN(C2CCC(=O)NC2=O)C3=O)CC1` (stereo not drawn) [Example 63, 1-(3-((2-(2,6-dioxopiperidine-3-)-1-oxoisoindoline-4-)oxy)propyl)-4-(3-fluorophenyl)piperidine-4-carbonitrile], the pIC50 was 6.00 to 7.00.
The same measure for `N#CC1(c2ccc(Cl)cc2)CCN(CCCCCOc2cccc3c2CN(C2CCC(=O)NC2=O)C3=O)CC1` (stereo not drawn) [Example 81, 4-(4-chlorophenyl)-1-(5-((2-(2,6-dioxopiperidine-3-)-1-oxoisoindoline-4-)oxy)pentyl) piperidine-4-carbonitrile]: greater than 7.00; for `O=C1CCC(N2Cc3c(CCCCCN4CCN(c5ccccc5)CC4)cccc3C2=O)C(=O)N1` (stereo not drawn) [Example 18, 3-(1-oxo-4-(5-(4-phenylpiperazine-1-)pentyl)indoline-2-)piperidine-2,6-dione]: greater than 7.00.
With `C[C@]1(N2Cc3c(OCCCN4CCC(C#N)(c5ccccc5OC(F)(F)F)CC4)cccc3C2=O)CCC(=O)NC1=O` [Example 56, (S)-1-(3-((2-(3-methyl-2,6-dioxopiperidine-3-)-1-oxoisoindoline-4-)oxy)propyl)-4-(2-(trifluoromethoxy)phenyl)piperidine-4-carbonitrile], the pIC50 was 4.70 to 6.00.
In the case of `C[C@]1(N2Cc3c(OCCCN4CCN(c5cccc(Cl)c5Cl)CC4)cccc3C2=O)CCC(=O)NC1=O` [Example 25, (S)-3-(4-(3-(4-(2,3-dichlorophenyl)piperazine-1-)propoxy)-1-oxoisoindoline-2-)-3-methylpiperidine-2,6-dione], the pIC50 is 4.70 to 6.00.
Take `Cc1ccccc1N1CCN(CCCCc2cccc3c2CN(C2CCC(=O)NC2=O)C3=O)CC1` (stereo not drawn) [Example 217, 3-(1-oxo-4-(4-(4-(o-tolyl)piperazine-1-yl)butyl)isoindoline-2-yl)piperidine-2,6-dione]: the pIC50 was greater than 7.00.
For `O=C1CCC(N2Cc3c(CCCCN4CCN(c5ccc(F)cc5)CC4)cccc3C2=O)C(=O)N1` (stereo not drawn) [Example 39, 3-(4-(4-(4-(4-fluorophenyl)piperazine-1-)butyl)-1-oxoisoindoline-2-)piperidine-2,6-dione], the pIC50 is greater than 7.00.
As to `N#CC1(c2c(F)cccc2Cl)CCN(CCCOc2cccc3c2CN(C2CCC(=O)NC2=O)C3=O)CC1` (stereo not drawn) [Example 68, 4-(2-chloro-6-fluorophenyl)-1-(3-((2-(2,6-dioxopiperidine-3-)-1-oxoisoindoline-4-)oxy)propyl)piperidine-4-carbonitrile], the pIC50 is greater than 7.00.
For `N#CC1(c2ccc(C(F)(F)F)cc2)CCN(CCCCCc2cccc3c2CN(C2CCC(=O)NC2=O)C3=O)CC1` (stereo not drawn) [Example 271, 1-(5-(2-(2,6-dioxopiperidin-3-yl)-1-oxoisoindolin-4-yl)pentyl)-4-(4-(trifluoromethyl)phenyl)piperidine-4-carbonitrile], the pIC50 is 4.70 to 6.00.
As to `Cc1cc(COCCCCOc2cccc3c2CN(C2CCC(=O)NC2=O)C3=O)c2ccccc2n1` (stereo not drawn) [Example 213, 3-(4-(4-((2-methylquinoline-4-)methoxy)butoxy)-1-oxoisoindoline-2-)piperidine-2,6-dione], the pIC50 was 6.00 to 7.00.
As to `COc1ccc(C2(C#N)CCN(CCCCCc3cccc4c3CN(C3CCC(=O)NC3=O)C4=O)CC2)cc1` (stereo not drawn) [Example 265, 1-(5-(2-(2,6-dioxopiperidin-3-yl)-1-oxoisoindolin-4-yl)pentyl)-4-(4-methoxyphenyl)piperidine-4-carbonitrile], the pIC50 is 4.70 to 6.00.
The result for `COc1cccc(C2(C#N)CCN(CCCCc3cccc4c3CN(C3CCC(=O)NC3=O)C4=O)CC2)c1OC` (stereo not drawn) [Example 259, 4-(2,3-dimethoxyphenyl)-1-(4-(2-(2,6-dioxopiperidin-3-yl)-1-oxoisoindoline-4-yl)butyl)piperidine-4-carbonitrile] reads 6.00 to 7.00; that for `O=C1CCC(N2Cc3c(OCCCCCN4CCC5(CC4)OCc4ccc(Cl)cc45)cccc3C2=O)C(=O)N1` (stereo not drawn) [Example 132, 3-(4-((5-(6-chloro-3H-spiro[isobenzofuran-1,4-piperidine]-1-)pentyl)oxy)-1-oxoisoindoline-2-)piperidine-2,6-dione], greater than 7.00; that for `O=C1CCC(N2Cc3c(CCCCCN4CCN(c5cc(Cl)cc(Cl)c5)CC4)cccc3C2=O)C(=O)N1` (stereo not drawn) [Example 237, 3-(4-(5-(4-(3,5-dichlorophenyl)piperazine-1-yl)pentyl)-1-oxoisoindoline-2-yl)piperidine-2,6-dione], 6.00 to 7.00.
The same measure for `COc1cccc(C2(C#N)CCN(CCCCCc3cccc4c3CN(C3CCC(=O)NC3=O)C4=O)CC2)c1OC` (stereo not drawn) [Example 260, 4-(2,3-dimethoxyphenyl)-1-(5-(2-(2,6-dioxopiperidin-3-yl)-1-oxoisoindoline-4-yl)pentyl)piperidine-4-carbonitrile]: 6.00 to 7.00; for `O=C1CCC(N2Cc3c(CCCCCOc4cnc5ccccc5c4)cccc3C2=O)C(=O)N1` (stereo not drawn) [Example 11, 3-(1-oxo-4-(5-(quinoline-3-oxy)pentyl)isoindoline-2-)piperidine-2,6-dione]: greater than 7.00; for `CC(=O)N[C@@H](CCCc1cccc2c1CN(C1CCC(=O)NC1=O)C2=O)C(=O)NCc1ccc(OCCN(C)C)cc1` (stereo partly drawn) [Example 190]: 4.70 to 6.00.
In the case of `COc1ccccc1N1CCN(CCCCc2cccc3c2CN(C2CCC(=O)NC2=O)C3=O)CC1` (stereo not drawn) [Example 224, 3-(4-(4-(4-(2-methoxyphenyl)piperazine-1-yl)butyl)-1-isoindoline-2-yl)piperidine-2,6-dione], the pIC50 is greater than 7.00.
Consider `CC(=O)N[C@@H](CCCc1cccc2c1CN(C1CCC(=O)NC1=O)C2=O)C(=O)Nc1ccccc1-c1cccnc1` (stereo partly drawn) [Example 196, (2S)-2-acetylamino-5-(2-(2,6-dioxopiperidine-3-)-1-oxoisoindoline-4-)-N-(2-(pyridine-3-)phenyl)pentanamide], for which the pIC50 was 4.70 to 6.00.
Take `Cc1ccc(NC(=O)CCCCOc2cccc3c2CN(C2CCC(=O)NC2=O)C3=O)cc1Cl` (stereo not drawn) [Example 159, N-(3-chloro-4-methylphenyl)-5-((2-(2,6-dioxopiperidine-3-)-1-oxoisoindoline-4-)oxy)valeramide]: the pIC50 is greater than 7.00.
